Earlier results as cited in patent US20070092586A1, “Compositions and methods for the administration psychotropic drugs which modulate body weight” (Alamo Pharmaceuticals, priority 2005, published 2007).

Assays:
[1] = lithium maintenance therapy; J. Clin. Psychopharmacol. 1988

SMILES	patients with weight gains of over 10 kg [1] [%]	increase in body weight (mean) (59 patients taking clozapine for an unstated period, P<0.05, Gerlach et al. 1989) [kg]	mean increase in body weight (over 21 months, patients who responded to clozapine and remained clinically stable, Jalenques et al. 1996) [kg]
O=C([O-])[O-].[Li+].[Li+] [lithium]	20		
CN1CCN(C2=Nc3cc(Cl)ccc3Nc3ccccc32)CC1 [clozapine, 8-chloro-11-(4-methyl-1-piperazinyl)-5H-dibenzo[b,e] [1,4] diazepine]		2.8	12.4
